This is an account of results in patent US12679878B2, “CRF2 receptor agonists and their use in therapy” (SANOFI, priority 2020, dated 2026).

Like-named read-outs stand apart in the source and are kept apart here. Starred links: 1 amine or outer side, 2 acyl side, 3 side chain; linkers in the order of their positions; H or OH if unused. Non-standard residues stand in square brackets, D forms with d. Residues, ends and D or L forms follow the SMILES beside them. Groups on a side chain read outwards from the residue. *: point of attachment. C18 diacid = O=C(O)CCCCCCCCCCCCCCCCC(=O)*; γGlu = O=C(O)[C@H](CCC(=O)[*:2])N[*:1]; Palmitoyl = CCCCCCCCCCCCCCCC(=O)*; AEEA = NCCOCCOCC(=O)O; Aib = CC(C)(N)C(=O)O

The target in data set [1] is T1, CRF2R (Homo sapiens, UniProt Q13324).
T1 construct: expressed in transfected cells; host or cells: TeloHEAC
The data set can be described thus: EC50 [nM] CRF2R. An excerpt:
(§1) Table printed on a drawing sheet, Fig. 3
Head of the field: EC50 [nM] CRF2R
(§2) The patent's description of the figure: FIG. 3: Representative sequences from peptides according to the invention with an optimized stability profile, wherein K[sema] stands for K[gGlu-C(O)(CH2)14CH3]
(§3) First copying reader's note: Second half (positions 13-38, C-term and activity) of the first table; the rows follow the same order, so the four rows of Peptide Seq. 1 are Patent Sequence N° 130, 171, 172 and 173.
Where the first naming reader finds the target: head: EC50 [nM] CRF2R

The target of data set [2] is T2, hCRF1 (Homo sapiens, UniProt P34998).
T2 construct: host or cells: CHO-K1 clone 2
The data set can be described thus: hCRF1 EC50 [nM].
Source text: as §1
Head of the field: hCRF1 EC50 [nM]
as §2, §3
Where the first naming reader finds the target: head: hCRF1 EC50 [nM]

A short description of data set [3]: Chemical stability, purity loss by UPLC-UV after 28 days at 40° C. vs 5° C., pH 4.5 acetate buffer (Example 12). In kind it is physicochemical. Particulars: 28 days 40° C. vs 5° C.; pH 4.5, 20 mM acetate buffer; 300 μM. The method, boiled down: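 300 μM compound (purity-corrected) in 20 mM acetate buffer, pH 4.5, stored 28 days at 5 and 40° C. Purity by UPLC-UV as compound peak area over total peak area. Value is the purity difference between 5° C. and 40° C. samples, relative to the 5° C. purity, in percent.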

Data set [4] addresses T3, CRF1R receptor (Homo sapiens, UniProt P34998).
T3 construct: host or cells: CHO-K1 clone 2
T3 sequence (P34998 24-415): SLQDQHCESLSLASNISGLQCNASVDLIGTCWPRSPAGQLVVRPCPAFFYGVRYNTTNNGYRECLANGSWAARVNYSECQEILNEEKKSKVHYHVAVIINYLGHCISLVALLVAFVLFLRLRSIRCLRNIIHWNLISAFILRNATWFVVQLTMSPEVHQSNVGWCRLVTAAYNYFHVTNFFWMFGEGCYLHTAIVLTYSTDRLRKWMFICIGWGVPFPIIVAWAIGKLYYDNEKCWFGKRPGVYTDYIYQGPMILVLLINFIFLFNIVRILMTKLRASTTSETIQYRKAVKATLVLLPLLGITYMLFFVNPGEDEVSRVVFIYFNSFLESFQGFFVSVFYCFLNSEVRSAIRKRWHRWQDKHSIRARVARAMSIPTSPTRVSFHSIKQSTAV
The data set can be described thus: cAMP activity at anti-target CRF1R, CRF1R-overexpression CHO cell line (Example 9). In kind it is cell-based. The note with it: CRF1R-overexpression CHO cell line. The method, boiled down: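 cAMP accumulation was read by HTRF after 30 min at room temperature of compound treatment. Cells were cryopreserved CHO cells overexpressing CRF1R, plated at 2000/well in IBMX (2 mM)-containing HBSS/HEPES buffer with 0 or 0.1% HSA. Activity was normalized to 1000 nM UCN2 as 100%.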

A short description of data set [5]: Physical stability, Thioflavin T fibrillation assay (Example 14). In kind it is physicochemical. Particulars: Buffer B: 100 mM acetate buffer, pH 4.5, 2.7 mg/ml m-cresol; 3 mg/ml; 37° C. shaking. The method, boiled down:
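Compounds at 3 mg/ml final in buffer were stressed at 37° C by repeated cycles of 10 s shaking at 960 rpm and 50 s rest. ThT fluorescence was read every 20 minutes in eight replicates, with fluorescence increase and lag time indicating fibrillation tendency.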

Data set [6] has as its target T4, endogenous human CRF2 (Homo sapiens, UniProt Q13324).
T4 construct: endogenous in cells; host or cells: NCI-H82
T4 sequence (Q13324 1-411): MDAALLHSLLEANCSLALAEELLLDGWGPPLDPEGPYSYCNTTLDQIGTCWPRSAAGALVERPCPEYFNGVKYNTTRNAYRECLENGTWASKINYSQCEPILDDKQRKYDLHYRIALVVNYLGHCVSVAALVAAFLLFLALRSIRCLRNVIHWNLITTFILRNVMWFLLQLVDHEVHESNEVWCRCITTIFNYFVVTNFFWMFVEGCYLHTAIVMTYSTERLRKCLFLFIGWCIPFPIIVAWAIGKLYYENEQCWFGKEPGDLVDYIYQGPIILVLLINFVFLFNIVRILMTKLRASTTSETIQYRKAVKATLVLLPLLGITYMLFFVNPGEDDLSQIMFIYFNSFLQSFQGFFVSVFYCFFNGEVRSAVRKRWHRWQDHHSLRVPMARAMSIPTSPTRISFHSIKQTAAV
The data set can be described thus: cAMP agonist effect in NCI-H82 cells expressing endogenous human CRF2 (Example 10). In kind it is cell-based. The note with it: cAMP HTRF, 5 min activation. As to the method: The agonist effect of the compounds was assessed in NCI-H82 cells expressing endogenous human CRF2.
NCI-H82 cells in suspension were plated in low-volume 384-well plates at a density of 30000 cells/well in 5 μl of test medium (RPMI+1 mM IBMX). The plates were briefly centrifuged at 800 rpm to allow the cell suspension to move to the bottom of the wells and then incubated for 2 hours at 37° C. in 5% CO2. 5 μl of test compounds at appropriate concentrations (10-11 to 3×10-7) diluted in test medium were then transferred in 384 wells plates. After 5 min of activation, the reaction was stopped by addition of HTRF revelation reagents with a multidrop dispenser. The two reagents were 5 μl/well of Anti-CAMP-cryptate diluted 20-fold in conjugate and lysis buffer and 5 μl/well of cAMP-D2 diluted 20-fold in conjugate and lysis buffer. After one-hour incubation at room temperature in the dark, the plates were read on a Clariostar apparatus.

Data set [7] addresses T5, human CRF2α receptor (Homo sapiens, UniProt Q13324).
T5 construct: expressed in transfected cells; host or cells: TeloHEAC
T5 sequence (Q13324 1-411): T4 sequence (Q13324 1-411)
Kind of data set: cAMP agonism at human CRF2 α receptor in TeloHEAC cells (Example 7). Particulars: cAMP HTRF, TeloHEAC cells stably expressing human CRF2 α. In kind it is cell-based. The method, boiled down:
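Percent activation was referenced to 1000 nM UCN2 (100%), and EC50 values taken as concentrations giving half of maximal response. The read-out was a homogeneous time-resolved fluorescence cAMP kit, fluorescence ratio 665/620 nm. Thawed cells (2000/well) saw compound for 30 min at RT in buffer with 2 mM IBMX and 0%/0.1% HSA.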

The test system of data set [8] is rat CRF2R α receptor. Kind of data set: cAMP agonism at rat CRF2R α receptor in A7R5 rat aortic smooth muscle cells (Example 8). In kind it is cell-based. The note with it: cAMP HTRF, A7R5 rat aortic smooth muscle cell line, 0% HSA. The method, boiled down:
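Thawed cryopreserved A7R5 cells in HBSS/20 mM HEPES (0 or 0.1% HSA) with 2 mM IBMX, 2000 cells/well, were exposed to compound for 30 min at room temperature. cAMP was read by HTRF (665/620 nm ratio) after 1 h with lysis reagents. Activity was normalised to 1000 nM urocortin 2 as 100%, and EC50 was taken as the concentration giving 50% of maximal activation.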

For the molecule `CCCCCCCCCCCCCCCC(=O)N[C@@H](CCC(=O)NCCCC[C@H](NC(=O)[C@@H](NC(=O)[C@H](CCCCN)NC(=O)[C@@H](NC(=O)[C@@H]1CCCN1C(=O)[C@@H](NC(=O)[C@H](CC(=O)O)NC(=O)[C@H](CC(C)C)NC(=O)[C@H](CO)NC(=O)[C@H](CC(C)C)NC(=O)[C@@H](NC(=O)[C@@H](N)Cc1ccccc1)[C@@H](C)O)C(C)C)[C@@H](C)O)[C@@H](C)CC)C(=O)N[C@@H](CCC(N)=O)C(=O)N[C@@H](CCCCN)C(=O)N[C@@H](CC(C)C)C(=O)N[C@@H](CC(C)C)C(=O)N[C@@H](CCCCN)C(=O)N[C@@H](CCC(N)=O)C(=O)N[C@@H](CCC(=O)O)C(=O)N[C@@H](CCCCN)C(=O)N[C@@H](CCC(N)=O)C(=O)N[C@@H](CCCCN)C(=O)N[C@@H](CCCCN)C(=O)N[C@@H](CCC(N)=O)C(=O)N[C@@H](CCCNC(=N)N)C(=O)N[C@@H](CCC(N)=O)C(=O)N[C@@H](CCCCN)C(=O)N[C@@H](C)C(=O)N[C@@H](CCCCN)C(=O)N[C@H](C(=O)N[C@@H](CC(N)=O)C(=O)N[C@@H](CCCCN)C(=O)N[C@@H](CCC(N)=O)C(=O)N[C@H](C(=O)N[C@@H](CC(C)C)C(=O)N[C@@H](CCC(=O)O)C(=O)N[C@@H](CCC(N)=O)C(=O)N[C@H](C(N)=O)C(C)C)[C@@H](C)CC)[C@@H](C)O)C(=O)O` [SEQ ID NO: 10] (H-FTLSLDVPTKIK([γGlu-Palmitoyl])QKLLKQEKQKKQRQKAKTNKQILEQV-NH2), the EC50 in data set [1] amounted to 0.07 nM; in data set [2], 91 nM.

As for `CC[C@H](C)[C@H](N)C(=O)N[C@H](C(=O)N[C@@H](CC(C)C)C(=O)N[C@@H](CO)C(=O)N[C@@H](CC(C)C)C(=O)N[C@@H](CC(=O)O)C(=O)N[C@@H](C(=O)N1CCC[C@H]1C(=O)N[C@H](C(=O)N[C@@H](CCCCN)C(=O)N[C@@H](CC(C)C)C(=O)N[C@@H](CCCCNC(=O)COCCOCCNC(=O)COCCOCCNC(=O)CC[C@H](NC(=O)CCCCCCCCCCCCCCCCC(=O)O)C(=O)O)C(=O)N[C@@H](CCC(N)=O)C(=O)N[C@H](C(=O)N[C@@H](CC(C)C)C(=O)N[C@@H](CC(C)C)C(=O)N[C@@H](CCCCN)C(=O)N[C@@H](CCC(N)=O)C(=O)N[C@@H](CCC(=O)O)C(=O)N[C@@H](CCCNC(=N)N)C(=O)N[C@@H](CCC(N)=O)C(=O)N[C@@H](CCCCN)C(=O)NC(C)(C)C(=O)N[C@@H](CCC(N)=O)C(=O)N[C@@H](CCCNC(=N)N)C(=O)N[C@@H](CCC(=O)O)C(=O)N[C@@H](CCC(N)=O)C(=O)N[C@@H](C)C(=O)N[C@@H](CCC(=O)O)C(=O)N[C@@H](CCCCN)C(=O)N[C@@H](CC(N)=O)C(=O)N[C@@H](CCCCN)C(=O)N[C@@H](CCC(N)=O)C(=O)N[C@H](C(=O)N[C@@H](CC(C)C)C(=O)N[C@@H](C)C(=O)N[C@@H](CCC(N)=O)C(=O)N[C@H](C(N)=O)C(C)C)[C@@H](C)CC)[C@@H](C)CC)[C@@H](C)CC)C(C)C)C(C)C` [compound 130] (H-IVLSLD[dV]PIKLK([AEEA-AEEA-γGlu-C18 diacid])QILLKQERQK[Aib]QREQAEKNKQILAQV-NH2; N-terminus assumed), the “Relative purity loss [%]” value in data set [3] was determined as 4.25%. The EC50 in data set [4] (0% HSA) was more than 1000 nM; in data set [6], 4.3 nM; in data set [7] (0% HSA, read-out: EC50 [nM], 0% HSA) it was 0.05 nM; in data set [7] (0.1% HSA, read-out: EC50 [nM], 0.1% HSA), 2.11 nM; in data set [8], 0.13 nM. Further, in data set [4] (read-out: Emax (%)), the Emax worked out at 20.3%. Besides, in data set [5], the “Increase in FI (fluorescence intensity)” value is given as “No”. For the same molecule, the “Lag time” value in data set [5] is given as more than 45 h.
